US6027875A, “Receptor infection assay” (The Salk Institute for Biological Studies, priority 1991, dated 2000)
Like-named read-outs stand apart in the source and are kept apart here.

What was measured:
[1] = molecular target: T1, human glucocorticoid receptor (GR) (Homo sapiens, UniProt P04150); test: Functional assay with recombinant receptor (hGR4) and reporter (MLUC3) viruses in 293 cells, luciferase activity; details: 22 hours after infection; for Luciferase response to dex mimicked by other adrenocorticosteroids: hGR4 + MLUC3 coinfected 293 cells
T1 sequence (P04150 1-777): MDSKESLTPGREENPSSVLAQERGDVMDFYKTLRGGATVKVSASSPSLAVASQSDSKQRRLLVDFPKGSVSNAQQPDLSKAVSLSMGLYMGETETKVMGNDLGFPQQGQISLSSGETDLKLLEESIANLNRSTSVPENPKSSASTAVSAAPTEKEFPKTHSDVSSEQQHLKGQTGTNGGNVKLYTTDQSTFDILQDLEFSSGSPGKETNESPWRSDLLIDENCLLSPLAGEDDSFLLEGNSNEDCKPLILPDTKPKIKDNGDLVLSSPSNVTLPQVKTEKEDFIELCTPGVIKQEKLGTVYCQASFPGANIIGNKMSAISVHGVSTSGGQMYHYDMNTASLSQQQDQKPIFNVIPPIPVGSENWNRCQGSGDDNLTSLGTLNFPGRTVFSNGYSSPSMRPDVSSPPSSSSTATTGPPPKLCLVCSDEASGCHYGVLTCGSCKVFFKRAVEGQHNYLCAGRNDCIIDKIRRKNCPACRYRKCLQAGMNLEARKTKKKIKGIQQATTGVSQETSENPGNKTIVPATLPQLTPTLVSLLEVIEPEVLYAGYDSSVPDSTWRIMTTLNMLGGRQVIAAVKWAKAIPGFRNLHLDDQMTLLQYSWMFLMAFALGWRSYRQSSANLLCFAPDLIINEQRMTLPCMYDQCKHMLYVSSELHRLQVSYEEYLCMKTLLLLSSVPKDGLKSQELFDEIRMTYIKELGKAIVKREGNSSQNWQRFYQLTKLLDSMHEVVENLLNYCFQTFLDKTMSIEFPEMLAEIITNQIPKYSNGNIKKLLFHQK
Excerpt: A reporter virus (MLUC3; also variously referred to as Ad3MLUC, MpCV3MTV-LUC-Ad and ADMLUC) was constructed containing the mouse mammary tumor virus LTR linked to the firefly luciferase cDNA with an SV40 polyadenylation signal (Hollenberg, et al., Cell 55, 899 (1988)) similar to the receptor virus hGR4 above. The two viruses, hGR4 and MLUC3, were coinfected into 293 cells growing in DMEM suplemented with 10% charcoal adsorbed fetal calf serum ±10^-7 M dexamethasone (dex), and cellular extracts were prepared by Triton X-100™ brand non-ionic surfactant lysis at 22 hours after infection. (Williams, et al., Anal. Biochem 176, 28 (1989)) These were tested for luciferase activity by incubating with ATP and luciferin in a suitable buffer system. (de Wet, et al., Mol. Cell Biol. 7, 725 (1987)). Light liberated in this reaction was measured using a luminometer.

[2] = molecular target: T1, human glucocorticoid receptor (GR); test: Detection of glucocorticoids: cells infected with hGR4 and MLUC3, luciferase activity; format: cell-based; parameters: expressed in transfected cells; host or cells: 293 cells (human embryonic kidney) infected with recombinant adenovirus hGR4 and reporter virus MLUC3; A3: 293 or CV-1 cells; details: 10^-8 M cortisol, 18 hours p.i., read-out: Share of the maximal transcriptional response
Description: Cells were infected with hGR4 and MLUC3 recombinant adenoviruses in the presence of varying concentrations of cortisol from 10^-11 M to 10^-5 M in 3-fold dilution steps. At 18 hours p.i., lysates were prepared and luciferase activity was measured. Approximately 10% of the maximal transcriptional response was detected at 10^-8 M cortisol. Since standard assay volumes are 200 μl per well in a 96 sample microliter dish, this represents about 2×10^-12 mole or about 0.6 ng of cortisol.

[3] = molecular target: T1, human glucocorticoid receptor (GR); test: Luciferase-based coinfection assay with unpurified virus stocks in 293 or CV-1 cells; parameters: expressed in transfected cells; host or cells: 293 cells (human embryonic kidney) infected with recombinant adenovirus hGR4 and reporter virus MLUC3; A3: 293 or CV-1 cells; details: 293 or CV-1 cells infected with both stocks, ten PFU/cell; lysates at twenty-two hours after infection
Excerpt: With the unpurified virus stocks, their ability to measure hormone-responsiveness was accomplished using various adrenocorticosteroid, in the luciferase based assay. Assuming that the titer of the viral stocks was approximately 10^8 PFU/ML, either 293 cells or CV-1 cells that have low endogenous GR levels were infected with both stocks at a multiplicity of infection equal to ten PFU/cell. At twenty-two hours after infection (empirically determined to be the time when maximal GR synthesis occurs by Western blot measurement of protein), cell lysates were prepared and tested for luciferase activity.
Within the concentration range of 10^-10 and 10^-5 M of corticosteroids, dose response curves were generated that appeared by all qualitative criteria to resemble the binding activities of those glucocorticoids for the receptor protein.

[4] = molecular target: T1, human glucocorticoid receptor (GR); details: 293 cell lysate, 20 µL/200 µL assayed
Description: The coinfection assay was carried out in the following manner. Twelve well dishes were seeded with 293 cells at a density of 1.2×10^5 cells per well and grown in Dulbecco's modified Eagle's medium (DME) supplemented with 10% fetal calf serum. Assuming that the hGR4, MLUC3, and dl 309 virus stocks were 10^8 PFU/ml, the next day cells were infected with various combinations of these stocks in triplicate at a multiplicity of infection corresponding to 50. Dexamethasone dissolved in 50% ethanol or the control vehicle alone were each diluted into DME supplemented with 10% charcoal-adsorbed fetal calf serum at a final concentration of 0.1 μM. These mixtures were added to cells adsorbed with virus for thirty minutes. Cells were harvested at 18, 22 and 89 hours after infection by scraping them from the plate and washing the cell pellets in phosphate-buffered saline, and resuspending them in 100 microliters of 100 mM K2 HPO4 (pH 7.8), 1 mM dithiothreitol). Cell lysates were prepared by three cycles of sequential freezing and thawing in a dry ice/ethanol and 37° C. baths. Cell debris was pelleted by centrifugation in a microcentrifuge for 5 minutes at 4° C. […] Luciferase enzyme activity was assayed by automatic injection of 1 mM d-luciferin (Analytical Luminescence Laboratories) as described in de Wet et al. Mol. Cell. Biol. 7, 725 (1987) using a Berthold luminometer.
The orientation is reversed relative to the major late promoter with the RSV long term repeat promoter driving the expression of the human glucocorticoid receptor DNA terminating with SV40 polyadenylation sequence. This orientation removes the tripartite leader from functioning in its usual manner. A separate vector for the receptor DNA is constructed similarly. The two vectors are separately used to infect 293 cells. First, 293 cells are infected with the vector bearing the human glucocorticoid receptor DNA. Successful infection can be tested by picking plaques and doing a Western analysis with human glucocorticoid receptor antibodies or one can measure the ligand binding properties of the extracts or one can do a restriction map analysis to assure proper infection with the human glucocoid receptor adenovirus DNA. Successfully infected cells are then infected with the reporter virus vector. Alternatively, both vectors could be mixed on, for example, 293 cells. Where host cells not bearing a complement of the adenovirus genome are used, one may coinfect with wild-type virus in order to supply the missing complement. […] The material to be tested may either be added in at the beginning or at such twenty-two hour period. The cells are then tested for measurement of the reporter activity. In the case of the exemplified luciferase gene, that measurement takes the form of quantitating light emission from luciferin oxidized by any luciferase present.

C[C@]12CCC(=O)C=C1CC[C@@H]1[C@@H]2[C@@H](O)C[C@]2(C=O)[C@@H](C(=O)CO)CC[C@@H]12 [aldosterone]
Luciferase response to dex mimicked by other adrenocorticosteroids [1]: mimicked

C[C@]12CCC(=O)C=C1CC[C@@H]1[C@@H]2[C@@H](O)C[C@@]2(C)[C@H]1CC[C@]2(O)C(=O)CO [cortisol]
activation at 0.01 µM [2]: ~10%
Luciferase response to dex mimicked by other adrenocorticosteroids [1]: mimicked

estrogen
Luciferase response to dex mimicked by other adrenocorticosteroids [1]: mimicked
Induction of luciferase activity (inducer in this system) [3]: ineffective inducers

C[C@]12C[C@H](O)[C@H]3[C@@H](CCC4=CC(=O)CC[C@@]43C)[C@@H]1CC[C@@H]2C(=O)CO [corticosterone]
Luciferase response to dex mimicked by other adrenocorticosteroids [1]: mimicked

C[C@@H]1C[C@H]2[C@@H]3CCC4=CC(=O)C=C[C@]4(C)[C@@]3(F)[C@@H](O)C[C@]2(C)[C@@]1(O)C(=O)CO [DEX, Dexamethasone]
Response of cell lysate (luciferase activity), with CV ([4]; co-infection HGR + DL309, 18 HRS after co-infection, DEX 3 × 10^-9): 35 (28%)
Response of cell lysate (luciferase activity), with CV ([4]; co-infection HGR + DL309, 18 HRS after co-infection, DEX 10^-7 M): 33
Response of cell lysate (luciferase activity), with CV ([4]; co-infection HGR + DL309, 22 HRS after co-infection, DEX 3 × 10^-9): 40 (19%)
Response of cell lysate (luciferase activity), with CV ([4]; co-infection HGR + DL309, 22 HRS after co-infection, DEX 10^-7 M): 42 (38%)
Response of cell lysate (luciferase activity), with CV ([4]; co-infection HGR + DL309, 89 HR after co-infection, DEX 3 × 10^-9): 22 (14%)
Response of cell lysate (luciferase activity), with CV ([4]; co-infection HGR + DL309, 89 HR after co-infection, DEX 10^-7 M): 27 (4%)
Response of cell lysate (luciferase activity), with CV ([4]; co-infection HGR + MTV-LUC, 18 HRS after co-infection, DEX 3 × 10^-9): 30015
Response of cell lysate (luciferase activity), with CV ([4]; co-infection HGR + MTV-LUC, 18 HRS after co-infection, DEX 10^-7 M): 72864
Response of cell lysate (luciferase activity), with CV ([4]; co-infection HGR + MTV-LUC, 22 HRS after co-infection, DEX 3 × 10^-9): 48858 (14%)
Response of cell lysate (luciferase activity), with CV ([4]; co-infection HGR + MTV-LUC, 22 HRS after co-infection, DEX 10^-7 M): 90718 (18%)
Response of cell lysate (luciferase activity), with CV ([4]; co-infection HGR + MTV-LUC, 89 HR after co-infection, DEX 3 × 10^-9): 1246 (68%)
Response of cell lysate (luciferase activity), with CV ([4]; co-infection HGR + MTV-LUC, 89 HR after co-infection, DEX 10^-7 M): 1065 (7%)
Response of cell lysate (luciferase activity), with CV ([4]; co-infection MTV-LUC + DL309, 18 HRS after co-infection, DEX 3 × 10^-9): 3643 (20%)
Response of cell lysate (luciferase activity), with CV ([4]; co-infection MTV-LUC + DL309, 18 HRS after co-infection, DEX 10^-7 M): 19130
Response of cell lysate (luciferase activity), with CV ([4]; co-infection MTV-LUC + DL309, 22 HRS after co-infection, DEX 3 × 10^-9): 5095 (12%)
Response of cell lysate (luciferase activity), with CV ([4]; co-infection MTV-LUC + DL309, 22 HRS after co-infection, DEX 10^-7 M): 24215 (4%)
Response of cell lysate (luciferase activity), with CV ([4]; co-infection MTV-LUC + DL309, 89 HR after co-infection, DEX 3 × 10^-9): 53 (48%)
Response of cell lysate (luciferase activity), with CV ([4]; co-infection MTV-LUC + DL309, 89 HR after co-infection, DEX 10^-7 M): 151 (23%)
Response of cell lysate (luciferase activity), with CV ([4]; infection DL309 only, 18 HRS after co-infection, DEX 3 × 10^-9): 28 (5%)
Response of cell lysate (luciferase activity), with CV ([4]; infection DL309 only, 18 HRS after co-infection, DEX 10^-7 M): 32
Response of cell lysate (luciferase activity), with CV ([4]; infection DL309 only, 22 HRS after co-infection, DEX 3 × 10^-9): 42 (22%)
Response of cell lysate (luciferase activity), with CV ([4]; infection DL309 only, 22 HRS after co-infection, DEX 10^-7 M): 43 (11%)
Response of cell lysate (luciferase activity), with CV ([4]; infection DL309 only, 89 HR after co-infection, DEX 3 × 10^-9): 22 (24%)
Response of cell lysate (luciferase activity), with CV ([4]; infection DL309 only, 89 HR after co-infection, DEX 10^-7 M): 23 (7%)
Additional enhancement of the luciferase response by coinfection with hGR4 ([1]; MLUC3 + hGR4 (not with parental dl 309), 10^-7 M dex, 293 cells, 0.1 µM): 5 fold
Stimulation of luciferase activity ([1]; MLUC3 alone, 10^-7 M dex, 293 cells, 0.1 µM): 10 fold

CC1=C(/C=C/C(C)=C/C=C/C(C)=C/C(=O)O)C(C)(C)CCC1 [retinoic acid]
Induction of luciferase activity (inducer in this system) [3]: ineffective inducers
